What was measured:
[1] = target: T1, Sex hormone-binding globulin (Homo sapiens) (UniProt P04278); assay: Displacement of [3H]DHT from human SHBG relative to testosterone
T1 sequence (whole entry): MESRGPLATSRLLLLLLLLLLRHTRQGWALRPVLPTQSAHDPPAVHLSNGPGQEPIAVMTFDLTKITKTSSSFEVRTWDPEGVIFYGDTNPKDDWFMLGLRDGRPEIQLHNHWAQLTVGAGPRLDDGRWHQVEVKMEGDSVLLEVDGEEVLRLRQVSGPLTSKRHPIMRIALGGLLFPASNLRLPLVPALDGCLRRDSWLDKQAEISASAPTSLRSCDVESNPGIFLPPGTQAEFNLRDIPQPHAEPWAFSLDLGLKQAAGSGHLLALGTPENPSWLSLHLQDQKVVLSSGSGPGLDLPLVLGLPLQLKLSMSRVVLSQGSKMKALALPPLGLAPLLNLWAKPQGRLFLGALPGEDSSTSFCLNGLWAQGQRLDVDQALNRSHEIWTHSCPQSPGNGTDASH

[2] = target: T2, Sex hormone-binding globulin (Homo sapiens, UniProt P04278); assay: Displacement of [3H]DHT from human SHBG
T2 sequence (P04278 whole entry): T1 sequence (whole entry)

| Structure (SMILES) | relative binding affinity (RBA) [1] | IC50 [2] [µM] |
| --- | --- | --- |
| Cc1cc(Cc2cc(C)c(O)c(CO)c2)cc(CO)c1O | 3330 | 48.2 |
| C[C@]12CC[C@H]3[C@@H](CCC4=CC(=O)CC[C@@]43C)[C@@H]1CC[C@@H]2O [TESTOSTERONE] |  | 0.014 |
| C[C@]12CC[C@@H]3c4ccc(O)cc4CC[C@H]3[C@@H]1CC[C@@H]2O | 3.5 |  |
| CC12CCNC(=O)C=C1CCC1C2CCC2(C)C(O)CCC12 (stereo not given) | 66 | 0.95 |
| CCC(c1ccc(O)c(O)c1)C(CC)c1ccc(O)c(F)c1 (stereo not given) | 714 | 10.3 |
| CCCC1c2ccc(O)cc2CC1c1ccc(O)cc1 (stereo not given) | 768 | 11.1 |
